Measurements taken from ChEMBL document CHEMBL3885861, “Open TG-GATES”.

Species on record: Rattus norvegicus
Test: Open TG-GATES - Regimen: Daily Repeat
Type: toxicity, organism-based, Sprague-Dawley
Set-up: regimen Daily Repeat, gender Male, age 6 weeks
Conditions: in vivo, po, 30 mg/kg, route gavage, dose level High; for APTT / Bas / Eos / Fbg / Hb / Ht / Lym / MCH / MCHC / MCV / Mono / Neu / PT / Plat / RBC / Ret / WBC: tissue Blood; for KIDNEY_L / KIDNEY_R / KIDNEY_TOTAL: tissue Kidney; for LIVER: tissue Liver; for A/G / ALP / ALT / AST / BUN / CRE / Ca / Cl / DBIL / GLC / IP / K / LDH / Na / PL / RALB / TBIL / TC / TG / TP / gamma-GTP: tissue Plasma

Nc1c2c(nc3ccccc13)CCCC2 [TACRINE]
TERMINAL_BW (72 h, time 3 day): 194.7 g
APTT (72 h, time 3 day): 21.3 s
Bas (72 h, time 3 day): 0%
Eos (72 h, time 3 day): 0.7%
Fbg (72 h, time 3 day): 361.7 mg/dL
Hb (72 h, time 3 day): 14.3 g/dL
Ht (72 h, time 3 day): 40.7%
Lym (72 h, time 3 day): 73%
MCH (72 h, time 3 day): 21 pg
MCHC (72 h, time 3 day): 35.1%
MCV (72 h, time 3 day): 59.8 fL
Mono (72 h, time 3 day): 2.7%
Neu (72 h, time 3 day): 22%
PT (72 h, time 3 day): 16.1 s
Plat (72 h, time 3 day): 120.4 x10_4/uL
RBC (72 h, time 3 day): 681.7 x10_4/ul
Ret (72 h, time 3 day): 3%
WBC (72 h, time 3 day): 79 x10_2/uL
KIDNEY_L (72 h, time 3 day): 0.9 g
KIDNEY_R (72 h, time 3 day): 0.9 g
KIDNEY_TOTAL (72 h, time 3 day): 1.9 g
LIVER (72 h, time 3 day): 8.6 g
A/G (72 h, time 3 day): 1.2
ALP (72 h, time 3 day): 1465.3 IU/L
ALT (72 h, time 3 day): 37.3 IU/L
AST (72 h, time 3 day): 82.7 IU/L
BUN (72 h, time 3 day): 16.3 mg/dL
CRE (72 h, time 3 day): 0.2 mg/dL
Ca (72 h, time 3 day): 10.8 mg/dL
Cl (72 h, time 3 day): 107.3 meq/L
DBIL (72 h, time 3 day): 0.0067 mg/dL
GLC (72 h, time 3 day): 169 mg/dL
IP (72 h, time 3 day): 7.4 mg/dL
K (72 h, time 3 day): 4.1 meq/L
LDH (72 h, time 3 day): 229.7 IU/L
Na (72 h, time 3 day): 140.7 meq/L
PL (72 h, time 3 day): 142.7 mg/dL
RALB (72 h, time 3 day): 3.2 g/dL
TBIL (72 h, time 3 day): 0.0233 mg/dL
TC (72 h, time 3 day): 84 mg/dL
TG (72 h, time 3 day): 52 mg/dL
TP (72 h, time 3 day): 5.8 g/dL
gamma-GTP (72 h, time 3 day): 1 IU/L
TERMINAL_BW ([…], time 7 day): 217.1 g
TERMINAL_BW ([…], time 14 day): 249.3 g
TERMINAL_BW ([…], time 28 day): 315.1 g
APTT ([…], time 7 day): 22.7 s
Bas ([…], time 7 day): 0%
Eos ([…], time 7 day): 0.7%
Fbg ([…], time 7 day): 325.7 mg/dL
Hb ([…], time 7 day): 14.2 g/dL
Ht ([…], time 7 day): 40.2%
Lym ([…], time 7 day): 73%
MCH ([…], time 7 day): 21.1 pg
MCHC ([…], time 7 day): 35.3%
MCV ([…], time 7 day): 59.7 fL
Mono ([…], time 7 day): 3.3%
Neu ([…], time 7 day): 22.3%
PT ([…], time 7 day): 16.2 s
Plat ([…], time 7 day): 127.6 x10_4/uL
RBC ([…], time 7 day): 673.7 x10_4/ul
Ret ([…], time 7 day): 4.7%
WBC ([…], time 7 day): 124.6 x10_2/uL
APTT ([…], time 14 day): 23.8 s
Bas ([…], time 14 day): 0%
Eos ([…], time 14 day): 1%
Fbg ([…], time 14 day): 320 mg/dL
Hb ([…], time 14 day): 15.1 g/dL
Ht ([…], time 14 day): 41.9%
Lym ([…], time 14 day): 79.3%
MCH ([…], time 14 day): 20.4 pg
MCHC ([…], time 14 day): 36%
MCV ([…], time 14 day): 56.8 fL
Mono ([…], time 14 day): 1.7%
Neu ([…], time 14 day): 17.3%
PT ([…], time 14 day): 15.8 s
Plat ([…], time 14 day): 126 x10_4/uL
RBC ([…], time 14 day): 737.3 x10_4/ul
Ret ([…], time 14 day): 3.5%
WBC ([…], time 14 day): 110.7 x10_2/uL
APTT ([…], time 28 day): 21.4 s
Bas ([…], time 28 day): 0%
Eos ([…], time 28 day): 1%
Fbg ([…], time 28 day): 295 mg/dL
Hb ([…], time 28 day): 15 g/dL
Ht ([…], time 28 day): 41.2%
Lym ([…], time 28 day): 74%
MCH ([…], time 28 day): 20.1 pg
MCHC ([…], time 28 day): 36.4%
MCV ([…], time 28 day): 55.1 fL
Mono ([…], time 28 day): 2%
Neu ([…], time 28 day): 22%
PT ([…], time 28 day): 16.5 s
Plat ([…], time 28 day): 114.6 x10_4/uL
RBC ([…], time 28 day): 748 x10_4/ul
Ret ([…], time 28 day): 3.3%
WBC ([…], time 28 day): 119.9 x10_2/uL
KIDNEY_L ([…], time 7 day): 1 g
KIDNEY_R ([…], time 7 day): 1 g
KIDNEY_TOTAL ([…], time 7 day): 1.9 g
KIDNEY_L ([…], time 14 day): 1.1 g
KIDNEY_R ([…], time 14 day): 1.1 g
KIDNEY_TOTAL ([…], time 14 day): 2.2 g
KIDNEY_L ([…], time 28 day): 1.2 g
KIDNEY_R ([…], time 28 day): 1.2 g
KIDNEY_TOTAL ([…], time 28 day): 2.4 g
LIVER ([…], time 7 day): 8.9 g
LIVER ([…], time 14 day): 9.8 g
LIVER ([…], time 28 day): 11.2 g
A/G ([…], time 7 day): 1.2
ALP ([…], time 7 day): 923 IU/L
ALT ([…], time 7 day): 41 IU/L
AST ([…], time 7 day): 79.7 IU/L
BUN ([…], time 7 day): 15 mg/dL
CRE ([…], time 7 day): 0.2 mg/dL
Ca ([…], time 7 day): 10.9 mg/dL
Cl ([…], time 7 day): 105.7 meq/L
DBIL ([…], time 7 day): 0.0033 mg/dL
GLC ([…], time 7 day): 176.3 mg/dL
IP ([…], time 7 day): 9.6 mg/dL
K ([…], time 7 day): 4.2 meq/L
LDH ([…], time 7 day): 268.3 IU/L
Na ([…], time 7 day): 141 meq/L
PL ([…], time 7 day): 140.7 mg/dL
RALB ([…], time 7 day): 3 g/dL
TBIL ([…], time 7 day): 0.0167 mg/dL
TC ([…], time 7 day): 70.7 mg/dL
TG ([…], time 7 day): 95.7 mg/dL
TP ([…], time 7 day): 5.6 g/dL
gamma-GTP ([…], time 7 day): 1 IU/L
A/G ([…], time 14 day): 1.2
ALP ([…], time 14 day): 1172 IU/L
ALT ([…], time 14 day): 39 IU/L
AST ([…], time 14 day): 74.7 IU/L
BUN ([…], time 14 day): 19.7 mg/dL
CRE ([…], time 14 day): 0.2 mg/dL
Ca ([…], time 14 day): 10.9 mg/dL
Cl ([…], time 14 day): 106.3 meq/L
DBIL ([…], time 14 day): 0 mg/dL
GLC ([…], time 14 day): 174 mg/dL
IP ([…], time 14 day): 8.1 mg/dL
K ([…], time 14 day): 4.6 meq/L
LDH ([…], time 14 day): 212.7 IU/L
Na ([…], time 14 day): 141 meq/L
PL ([…], time 14 day): 143 mg/dL
RALB ([…], time 14 day): 3 g/dL
TBIL ([…], time 14 day): 0.02 mg/dL
TC ([…], time 14 day): 69.3 mg/dL
TG ([…], time 14 day): 104 mg/dL
TP ([…], time 14 day): 5.5 g/dL
gamma-GTP ([…], time 14 day): 1 IU/L
A/G ([…], time 28 day): 1
ALP ([…], time 28 day): 1280 IU/L
ALT ([…], time 28 day): 35 IU/L
AST ([…], time 28 day): 81 IU/L
BUN ([…], time 28 day): 17 mg/dL
CRE ([…], time 28 day): 0.2 mg/dL
Ca ([…], time 28 day): 10.4 mg/dL
Cl ([…], time 28 day): 106 meq/L
DBIL ([…], time 28 day): 0 mg/dL
GLC ([…], time 28 day): 160 mg/dL
IP ([…], time 28 day): 8.2 mg/dL
K ([…], time 28 day): 4.2 meq/L
LDH ([…], time 28 day): 96 IU/L
Na ([…], time 28 day): 143 meq/L
PL ([…], time 28 day): 128 mg/dL
RALB ([…], time 28 day): 2.9 g/dL
TBIL ([…], time 28 day): 0.03 mg/dL
TC ([…], time 28 day): 71 mg/dL
TG ([…], time 28 day): 64 mg/dL
TP ([…], time 28 day): 5.7 g/dL
gamma-GTP ([…], time 28 day): 1 IU/L
